Experimental data: ChEMBL document CHEMBL5260859, “Discovery and structure-activity relationship study of 2-piperazinyl-benzothiazole derivatives as potent and selective PPARδ agonists” (Bioorg Med Chem, 2023)

How the values were obtained:
Format in all cases: cell-based
[1] = molecular target: T1, Peroxisome proliferator-activated receptor delta (Mus musculus, UniProt P35396); test: Agonist activity at Gal4-fused mouse PPAR-delta ligand binding domain expressed in CHO-K1 cells assessed as receptor transactivation incubated for 24 to 48 hrs by luciferase reporter gene assay
T1 sequence (P35396 whole entry): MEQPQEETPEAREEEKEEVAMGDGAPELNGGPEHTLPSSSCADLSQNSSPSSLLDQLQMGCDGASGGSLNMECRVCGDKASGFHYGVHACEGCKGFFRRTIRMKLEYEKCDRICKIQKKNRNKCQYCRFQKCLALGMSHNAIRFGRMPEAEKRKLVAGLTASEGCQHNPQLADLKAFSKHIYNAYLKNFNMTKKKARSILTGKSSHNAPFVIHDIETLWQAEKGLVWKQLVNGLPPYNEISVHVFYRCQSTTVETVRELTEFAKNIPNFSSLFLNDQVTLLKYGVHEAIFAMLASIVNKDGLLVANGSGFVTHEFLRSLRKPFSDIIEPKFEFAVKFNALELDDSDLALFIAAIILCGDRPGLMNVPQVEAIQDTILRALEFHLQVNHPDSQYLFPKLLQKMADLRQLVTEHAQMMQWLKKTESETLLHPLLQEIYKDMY

Mus musculus = species on record: Mus musculus; test: Selectivity ratio of EC50 for agonist activity at Gal4-fused mouse PPAR-alpha ligand binding domain expressed in CHO-K1 cells to EC50 for agonist activity at Gal4-fused mouse PPAR-delta ligand binding domain expressed in CHO-K1 cells
[2] = molecular target: T2, Peroxisome proliferator-activated receptor gamma (Mus musculus, UniProt P37238); test: Agonist activity at Gal4-fused mouse PPAR-gamma ligand binding domain expressed in CHO-K1 cells assessed as receptor transactivation incubated for 24 to 48 hrs by luciferase reporter gene assay
T2 sequence (P37238 whole entry): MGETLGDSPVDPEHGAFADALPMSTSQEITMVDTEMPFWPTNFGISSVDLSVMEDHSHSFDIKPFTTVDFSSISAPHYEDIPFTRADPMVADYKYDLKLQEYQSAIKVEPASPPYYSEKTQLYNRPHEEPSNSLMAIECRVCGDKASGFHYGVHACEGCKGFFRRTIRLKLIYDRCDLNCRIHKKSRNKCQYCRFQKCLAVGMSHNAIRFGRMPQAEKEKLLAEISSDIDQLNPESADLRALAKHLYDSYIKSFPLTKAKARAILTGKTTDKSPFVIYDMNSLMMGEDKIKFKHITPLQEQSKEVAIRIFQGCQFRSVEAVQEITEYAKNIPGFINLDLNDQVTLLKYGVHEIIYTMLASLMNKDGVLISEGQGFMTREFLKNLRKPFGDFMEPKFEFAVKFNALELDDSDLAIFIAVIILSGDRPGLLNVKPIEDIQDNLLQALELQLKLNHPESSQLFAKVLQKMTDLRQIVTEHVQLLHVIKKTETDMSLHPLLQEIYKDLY

[3] = molecular target: T3, Peroxisome proliferator-activated receptor delta (Homo sapiens, UniProt Q03181); test: Agonist activity at Gal4-fused human PPAR-delta ligand binding domain expressed in CHO-K1 cells assessed as receptor transactivation incubated for 24 to 48 hrs by luciferase reporter gene assay
T3 sequence (Q03181 whole entry): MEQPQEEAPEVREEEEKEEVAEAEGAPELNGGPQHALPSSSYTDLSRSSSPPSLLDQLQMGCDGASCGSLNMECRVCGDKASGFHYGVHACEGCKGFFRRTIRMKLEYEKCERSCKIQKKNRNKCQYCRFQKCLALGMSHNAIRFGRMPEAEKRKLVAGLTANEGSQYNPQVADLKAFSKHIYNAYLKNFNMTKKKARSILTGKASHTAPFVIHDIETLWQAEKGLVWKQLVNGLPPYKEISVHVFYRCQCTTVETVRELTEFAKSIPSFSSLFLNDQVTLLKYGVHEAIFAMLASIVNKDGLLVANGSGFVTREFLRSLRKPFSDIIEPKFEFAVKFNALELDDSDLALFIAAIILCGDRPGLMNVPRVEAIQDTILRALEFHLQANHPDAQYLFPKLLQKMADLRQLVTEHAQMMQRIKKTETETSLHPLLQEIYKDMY

[4] = molecular target: T4, Peroxisome proliferator-activated receptor delta (Mus musculus) (UniProt P35396); test: Agonist activity at Gal4-fused mouse PPAR-delta ligand binding domain expressed in CHO-K1 cells assessed as receptor transactivation incubated for 24 to 48 hrs by luciferase reporter gene assay relative to control; conditions: time lower 24.0 hrs, time upper […]
T4 sequence (whole entry): T1 sequence (P35396 whole entry)

**Q.** What does the source list for `Cc1cc(CC(=O)O)cc(CN2CCN(c3nc4ccc(C(F)(F)F)cc4s3)[C@H](C)C2)c1`?
**A.** EC50 [1]: 24 nM; Ratio EC50 (Mus musculus): 152; EC50 [2]: 1800 nM; EC50 [3]: 6.2 nM; Emax [4]: 20.8%

**Q.** For `Cc1cc(CC(=O)O)cc(CN2CCN(c3nc4ccc(C(F)(F)F)cc4s3)[C@@H](C)C2)c1`, which EC50 [1] is on record?
**A.** The EC50 was 39 nM.

**Q.** What about the Ratio EC50 (Mus musculus) of the same molecule?
**A.** Its Ratio EC50 is 100.

**Q.** And the EC50 [2]?
**A.** The EC50 was 2700 nM.

**Q.** What about the EC50 [3] of the same molecule?
**A.** Its EC50 is 10 nM.

**Q.** And the Emax [4]?
**A.** The Emax was 20.4%.
